Data taken from US20080171059A1, “METHODS AND COMPOSITIONS FOR INCREASED PRIMING OF T-CELLS THROUGH CROSS-PRESENTATION OF EXOGENOUS ANTIGENS” (priority 2006, published 2008).

Columns and labels:
[1] = target: Cathepsin S (Homo sapiens, UniProt P25774); test: Cleavage of antigen sequences by Cathepsin S; type: biochemical; settings: cleavage positions MQ|AE and NLVPMVA|TV
[2] = test system: CD8+ T cell line specifically recognizing the N9V/HLA-A*0201 complex; test: Cross-presentation assay: yeast-fed monocyte-derived DCs stimulate IFNγ secretion in co-cultured N9V-specific CD8+ T cells; type: cell-based, human
Method: An interferon gamma (IFNY) secretion cell capture FACS assay was performed on the T cells to quantify the percentage of cells that had been activated as a result of cross-presentation by the DCs.
The monocytes were aliquoted into vials and cryopreserved in 90% fetal bovine serum (FBS), 10% DMSO. […] Unless otherwise indicated, media components were from Hyclone (Logan, Utah); low endotoxin products were chosen where available. 4-5×10^6 monocytes were cultured per well of a 6-well plate in 2.5 ml C10 medium supplemented with 1000 U/ml each of interleukin-4 and granulocyte-macrophage colony stimulating factor (C10GF; cytokines from R & D Systems, Minneapolis, Minn.). After 2 and 4 days of culture, each well was topped up with 0.5 ml C10GF; after 6 days of culture, floating and loosely adherent monocyte-derived DCs were harvested by gentle resuspension.
Cross-presentation Assay After 6 days of differentiation, monocyte-derived DCs were seeded in 96-well round bottom plates at 1 or 2×10^5 cells in 200 μl C10GF per well. Appropriate numbers of yeast cells (measured by optical density at 600 nm with 10D≈10^7/ml) were rendered non-viable by UV-irradiation (2×1000 J/m^2 in a Stratalinker, Stratagene, La Jolla, Calif.), pelleted by centrifugation and added to the DCs. For inhibition experiments, DCs were pre-incubated with lactacystin (5 μM; Calbiochem, San Diego, Calif.) or chloroquine (25 μM) for one hour before yeast samples were introduced. […] Following 4 h of co-culture, the contents of each well were transferred to tubes for labeling with Miltenyi's IFNY secretion assay kit (Bergisch Gladbach, Germany) according to the recommended protocol. […] The percentage of CD8^+ cells that were IFNY+ was determined by flow cytometry (Coulter Epics XL, Fullerton, Calif. or BD FACSCalibur). The cut-off PE fluorescence was set for each experiment such that about 0.5% of T cells were IFNY+ in a negative control sample (no yeast or peptide).
Surface Display Antigen Dose Normalization In experiments where different linkers were used to surface-display antigen, several cultures of each yeast sample were induced, and cultures with mean antigen levels within 10% of each other were selected to minimize the effect of variable antigen dose on cross-presentation. […] Therefore, each yeast sample was mixed with the appropriate amount of EBY100 yeast to normalize the antigen dose while maintaining the 20:1 ratio of yeast to DCs.

Sequence of Cathepsin S (P25774 115-331): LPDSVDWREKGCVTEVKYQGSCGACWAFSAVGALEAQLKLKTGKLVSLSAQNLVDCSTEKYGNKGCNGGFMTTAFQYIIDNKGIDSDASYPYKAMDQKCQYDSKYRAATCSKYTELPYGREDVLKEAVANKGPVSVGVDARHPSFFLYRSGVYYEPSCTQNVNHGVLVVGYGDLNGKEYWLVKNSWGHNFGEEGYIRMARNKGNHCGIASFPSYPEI

With “NLVPMVATV [cytomegalovirus epitope, HLA-A*0201-restricted peptide derived from CMV phosphoprotein pp 65]” the “Cleavage by Cathepsin S” value [1] was “cleaved rapidly”.

In the case of CC(=O)N[C@@H](CSC(=O)[C@]1([C@@H](O)C(C)C)NC(=O)[C@H](C)[C@@H]1O)C(=O)O [lactacystin], the “Effect of inhibitor on cross-presentation of surface-displayed antigen” value ([2]; EBYN9V yeast 20:1, lactacystin 5 μM or chloroquine 25 μM added one hour before yeast) is reported as “strongly inhibited”, the “Effect of inhibitor on cross-presentation of strains with deleted, C1 and (C1)4 linkers” value ([2]; all three integrated strains, lactacystin 5 μM or chloroquine 25 μM) is reported as “inhibited” and the “Effect of inhibitor on cross-presentation of intracellular antigen” value ([2]; yeast expressing Aga2p-N9V intracellularly 20:1, lactacystin 5 μM or chloroquine 25 μM) is reported as “inhibited”.

In the case of “ARNLVPMVATVQGQN [15-mer extended CMV pp 65 peptide containing N9V, positive control]”, the “Percentage of IFNγ+ T cells” value ([2]; positive control, 1 μM extended peptide) is reported as 45-70%.
